Laboratory results from patent US7612087B2, “Heterocyclic compounds as inhibitors of beta-lactamases” (Novexel, priority 2002, dated 2009).
Counter-ions that a name gives are not always drawn. Like-named read-outs stand apart in the source and are kept apart here.

How the values were obtained:
E. coli 250CF1 (Tem3) = experiment: microbe, parasite or virus in culture; assay type: cell-based; conditions: compound at 5 mg/l, 24 hours at 37° C.; for MIC of Piperacillin in combination with the compound: Trial 4, 250CF1 Tem3
Method in brief: (§1)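 Broth micro-dilution; β-lactamine dilution series + test product fixed at 5 mg/l; inoculate; 24 h, 37° C; MIC = no visible growth, mg/l.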

β-lactamase TEM1 = biological target: T1, β-lactamase TEM1 (Escherichia coli, UniProt P62593); experiment: Inhibition of isolated β-lactamase Tem-1 (Nitrocefin hydrolysis); assay type: biochemical, E.coli 250HT21; conditions: 100 μM Nitrocefin, 50 mM sodium phosphate buffer pH7.0, 37° C.
T1 construct: The β-lactamases are isolated from bacterial strains which are resistant to penicillins and cephalosporins; endogenous in cells; host or cells: E. coli 250HT21 (natural producer; French-press lysate, 100,000 g supernatant)
Method in brief: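 TEM-1 from soluble extract of E. coli 250HT21, normalized enzyme, 100 μM Nitrocefin in 50 mM sodium phosphate pH 7.0 at 37 °C. Initial-rate hydrolysis read kinetically at 485 nm, with and without 5 min enzyme–inhibitor preincubation. CI50 from 6 or 8 concentrations in duplicate.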

β-lactamase P99 = biological target: T2, β-lactamase P99 (Enterobacter cloacae, UniProt P05364); experiment: biochemical
T2 construct: The β-lactamases are isolated from bacterial strains which are resistant to penicillins and cephalosporins; endogenous in cells; host or cells: Enterobacter cloacae 293HT6 (natural producer; French-press lysate, 100,000 g supernatant)
Method in brief: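 P99 β-lactamase, taken from the soluble fraction of an Enterobacter cloacae 293HT6 lysate, was assayed at 37° C. in 50 mM sodium phosphate buffer pH7.0 with 100 μM Nitrocefin as the chromogenic substrate. Hydrolysis was followed kinetically at 485 nm at initial speed, with and without a 5 mn enzyme–inhibitor preincubation. Inhibitors were tested at 6 or 8 concentrations in duplicate, and IC50 was fitted with GraFit.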

[1] = test system: E. cloacae 293HT6 (Class C); experiment: MIC, micro-dilution in liquid medium, β-lactamine with product at 5 mg/l; assay type: cell-based; conditions: compound at 5 mg/l, 24 hours at 37° C.; for MIC of Piperacillin in combination with the compound: Trial 9, 293HT6 Class
Method in brief: as §1

[2] = test system: P. aeruginosa 391HT8 (PSE); experiment: as above; assay type: cell-based; conditions: compound at 5 mg/l, 24 hours at 37° C.; for MIC of Piperacillin in combination with the compound: Trial 12, 391HT8 PSE
Method in brief: as §1

E. coli 250BE1 (SHV4) = experiment: as above; assay type: cell-based; conditions: compound at 5 mg/l, 24 hours at 37° C.; for MIC of Piperacillin in combination with the compound: Trial 7, 250BE1 SHV4
Method in brief: as §1

[3] = test system: S. aureus 011GO66 (PeniR); experiment: as above; assay type: cell-based; conditions: compound at 5 mg/l, 24 hours at 37° C.; for MIC of Piperacillin in combination with the compound: Trial 1, 011GO66 peniR
Method in brief: as §1

E. coli 250HT22 (Tem2) = experiment: as above; assay type: cell-based; conditions: compound at 5 mg/l, 24 hours at 37° C.; for MIC of Piperacillin in combination with the compound: Trial 3, 250HT22 Tem2
Method in brief: as §1

[4] = test system: P. aeruginosa 391HT7 (PSE); experiment: as above; assay type: cell-based; conditions: compound at 5 mg/l, 24 hours at 37° C.; for MIC of Piperacillin in combination with the compound: Trial 11, 391HT7 PSE
Method in brief: as §1

E. coli 250SJ1 (Tem7) = experiment: as above; assay type: cell-based; conditions: compound at 5 mg/l, 24 hours at 37° C.; for MIC of Piperacillin in combination with the compound: Trial 5, 250SJ1 Tem7
Method in brief: as §1

E. coli 250HT21 (Tem1) = experiment: as above; assay type: cell-based; conditions: compound at 5 mg/l, 24 hours at 37° C.; for MIC of Piperacillin in combination with the compound: Trial 2, 250HT21 Tem1
Method in brief: as §1

E. coli 250HT26 (SHV1) = experiment: as above; assay type: cell-based; conditions: compound at 5 mg/l, 24 hours at 37° C.; for MIC of Piperacillin in combination with the compound: Trial 6, 250HT26 SHV1
Method in brief: as §1

Serratia 301HT6 = experiment: as above; assay type: cell-based; conditions: compound at 5 mg/l; Trial 10, 301HT6 Serratia; 24 hours at 37° C.
Method in brief: as §1

[5] = test system: E. coli 250HT23 (Class D); experiment: as above; assay type: cell-based; conditions: compound at 5 mg/l, 24 hours at 37° C.; for MIC of Piperacillin in combination with the compound: Trial 8, 250HT23 Class D
Method in brief: as §1

T2 sequence (P05364 21-381): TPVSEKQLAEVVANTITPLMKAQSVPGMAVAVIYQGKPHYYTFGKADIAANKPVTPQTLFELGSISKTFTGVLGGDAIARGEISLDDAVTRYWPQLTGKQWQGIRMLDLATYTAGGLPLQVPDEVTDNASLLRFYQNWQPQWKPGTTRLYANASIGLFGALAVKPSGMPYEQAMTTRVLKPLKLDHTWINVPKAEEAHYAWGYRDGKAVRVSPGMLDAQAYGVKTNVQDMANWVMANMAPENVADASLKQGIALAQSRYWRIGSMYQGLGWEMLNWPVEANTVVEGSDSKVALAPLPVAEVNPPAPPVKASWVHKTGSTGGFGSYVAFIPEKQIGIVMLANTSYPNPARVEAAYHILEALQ
T1 sequence (P62593 24-286 limits assumed): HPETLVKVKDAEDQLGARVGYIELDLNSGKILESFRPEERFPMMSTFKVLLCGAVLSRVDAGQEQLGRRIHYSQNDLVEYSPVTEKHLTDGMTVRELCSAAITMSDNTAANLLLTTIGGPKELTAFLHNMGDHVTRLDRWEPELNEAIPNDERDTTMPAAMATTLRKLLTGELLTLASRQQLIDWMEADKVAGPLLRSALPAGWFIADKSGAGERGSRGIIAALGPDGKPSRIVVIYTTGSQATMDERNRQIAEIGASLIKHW

SMILES	MIC of Piperacillin in combination with the compound (E. coli 250CF1 (Tem3)) [µg/mL]	IC50 (β-lactamase TEM1) [nM]	MIC of Piperacillin in combination with the compound [1] [µg/mL]	MIC of Piperacillin in combination with the compound [2] [µg/mL]	MIC of Piperacillin in combination with the compound (E. coli 250BE1 (SHV4)) [µg/mL]	MIC of Piperacillin in combination with the compound [3] [µg/mL]	MIC of Piperacillin in combination with the compound (E. coli 250HT22 (Tem2)) [µg/mL]	MIC of Piperacillin in combination with the compound [4] [µg/mL]	MIC of Piperacillin in combination with the compound (E. coli 250SJ1 (Tem7)) [µg/mL]	MIC of Piperacillin in combination with the compound (E. coli 250HT21 (Tem1)) [µg/mL]	MIC of Piperacillin in combination with the compound (E. coli 250HT26 (SHV1)) [µg/mL]	MIC of Piperacillin in combination with the compound (Serratia 301HT6) [µg/mL]	MIC of Piperacillin in combination with the compound [5] [µg/mL]	further results
O=C(OCCc1ccccn1)[C@H]1CC[C@@H]2CN1C(=O)N2OS(=O)(=O)[O-].[Na+] (relative stereo) [Example 50, sodium salt of trans 2-(2-pyridinyl)ethyl 7-oxo-6-(sulphooxy)-1,6-diazabicyclo[3.2.1]octane-2-carboxylate]	5	18	>40	>40	40	1.2	40	>40	40	2.5	40	0.6	40	IC50 (β-lactamase P99; 100 μM Nitrocefin, 50 mM sodium phosphate buffer pH7.0, 37° C., read-out: IC50 nM/P99): 150 nM
NC(=O)COC(=O)C1CCC2CN1C(=O)N2OS(=O)(=O)O (stereo not drawn) [Example 48, sodium salt of trans 2-amino-2-oxoethyl 7-oxo-6-(sulphooxy)-1,6-diazabicyclo[3.2.1]octane-2-carboxylate]	1.2	15	2.5	>40	2.5	1.2	2.5	>40	1.2	0.6	1.2	0.6	5	MIC of Cefotaxime in combination with the compound (E. coli 250CF1 (Tem3); Trial 4, 250CF1 E. coli Tem3): <=0.04 μg/ml; IC50 (β-lactamase P99): 120 nM; MIC of Cefotaxime in combination with the compound ([1]; Trial 9, 293HT6 E. cloacae Class C): 0.15 µg/mL; MIC of Cefotaxime in combination with the compound ([2]; Trial 12, 391HT8 P. aeruginosa PSE): >40 µg/mL; MIC of Cefotaxime in combination with the compound (E. coli 250BE1 (SHV4); Trial 7, 250BE1 E. coli SHV4): 0.08 µg/mL; MIC of Cefotaxime in combination with the compound ([3]; Trial 1, 011GO66 S. aureus PeniR): 2.5 µg/mL; MIC of Cefotaxime in combination with the compound (E. coli 250HT22 (Tem2); Trial 3, 250HT22 E. coli Tem2): <=0.04 μg/ml; MIC of Cefotaxime in combination with the compound ([4]; Trial 11, 391HT7 P. aeruginosa PSE): 40 µg/mL; MIC of Cefotaxime in combination with the compound (E. coli 250SJ1 (Tem7); Trial 5, 250SJ1 E. coli Tem7): <=0.04 μg/ml; MIC of Cefotaxime in combination with the compound (E. coli 250HT21 (Tem1); Trial 2, 250HT21 E. coli Tem1): <=0.04 μg/ml; MIC of Cefotaxime in combination with the compound (E. coli 250HT26 (SHV1); Trial 6, 250HT26 E. coli SHV1): <=0.04 μg/ml; MIC of Cefotaxime in combination with the compound (Serratia 301HT6): <=0.04 μg/ml; MIC of Cefotaxime in combination with the compound ([5]; Trial 8, 250HT23 E. coli Class D): <=0.04 μg/ml
